Results taken from US20220402948A1, “EGFR INHIBITOR, COMPOSITION AND PREPARATION METHOD THEREFOR” (BETTA PHARMACEUTICALS CO., LTD., priority 2019, published 2022).
Read-outs that look alike come from different tables or passages of the source.

Assays:
EGFRΔ19del/T790M/C797S = EGFRΔ19del/T790M/C797S (Homo sapiens, UniProt P00533, T790M/C797S, form not given); experiment: EGFR Δ19del/T790M/C797S kinase test (mobility variation analysis, Caliper EZ Reader); type: biochemical; details: kinase enzymatic activity, Table 1
Sequence of EGFRΔ19del/T790M/C797S (P00533 with tags, fused parts or gaps DEL746-750/T790M/C797S, form open): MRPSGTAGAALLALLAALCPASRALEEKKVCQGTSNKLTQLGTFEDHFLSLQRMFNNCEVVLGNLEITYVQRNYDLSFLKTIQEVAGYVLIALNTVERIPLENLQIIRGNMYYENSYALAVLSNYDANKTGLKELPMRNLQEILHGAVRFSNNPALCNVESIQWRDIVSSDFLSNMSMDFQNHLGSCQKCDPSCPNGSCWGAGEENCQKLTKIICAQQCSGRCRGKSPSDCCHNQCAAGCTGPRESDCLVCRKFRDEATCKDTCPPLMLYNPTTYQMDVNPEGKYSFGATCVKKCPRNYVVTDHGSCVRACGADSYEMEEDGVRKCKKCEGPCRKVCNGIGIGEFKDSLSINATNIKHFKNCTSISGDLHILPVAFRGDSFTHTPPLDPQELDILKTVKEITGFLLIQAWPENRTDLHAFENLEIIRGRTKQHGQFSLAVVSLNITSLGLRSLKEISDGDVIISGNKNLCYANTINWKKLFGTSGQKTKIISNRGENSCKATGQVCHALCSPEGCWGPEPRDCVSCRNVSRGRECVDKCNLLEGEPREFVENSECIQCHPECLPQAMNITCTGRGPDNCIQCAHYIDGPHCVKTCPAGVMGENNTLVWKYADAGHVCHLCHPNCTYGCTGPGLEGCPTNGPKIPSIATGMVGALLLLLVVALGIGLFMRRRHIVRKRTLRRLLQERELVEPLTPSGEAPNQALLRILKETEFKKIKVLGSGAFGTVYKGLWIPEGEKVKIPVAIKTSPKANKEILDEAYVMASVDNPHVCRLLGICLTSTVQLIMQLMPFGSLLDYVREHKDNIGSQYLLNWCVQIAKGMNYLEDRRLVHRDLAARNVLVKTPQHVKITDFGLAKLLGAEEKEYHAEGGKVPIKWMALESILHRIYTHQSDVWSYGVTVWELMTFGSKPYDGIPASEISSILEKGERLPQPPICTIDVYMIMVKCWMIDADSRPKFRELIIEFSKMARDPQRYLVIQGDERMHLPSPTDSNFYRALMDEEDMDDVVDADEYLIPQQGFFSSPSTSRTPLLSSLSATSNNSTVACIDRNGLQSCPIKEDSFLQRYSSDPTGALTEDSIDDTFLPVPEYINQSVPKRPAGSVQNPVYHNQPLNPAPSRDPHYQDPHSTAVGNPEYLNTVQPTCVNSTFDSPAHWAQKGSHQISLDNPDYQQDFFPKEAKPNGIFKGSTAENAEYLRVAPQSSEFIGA
How it was run: (§1)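 Read-out is substrate-to-product conversion by mobility shift, stopped after incubation at room temperature with ATP and substrate, following a 10-minute room-temperature compound–enzyme pre-incubation. IC50 obtained by four-parameter variable-slope fitting of inhibition normalized between enzyme-free and uninhibited controls.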

EGFR WT = EGFR WT (Homo sapiens, UniProt P00533); experiment: EGFR WT kinase test (mobility variation analysis, Caliper EZ Reader); type: biochemical; details: kinase enzymatic activity, Table 1
Sequence of EGFR WT (P00533 25-1210): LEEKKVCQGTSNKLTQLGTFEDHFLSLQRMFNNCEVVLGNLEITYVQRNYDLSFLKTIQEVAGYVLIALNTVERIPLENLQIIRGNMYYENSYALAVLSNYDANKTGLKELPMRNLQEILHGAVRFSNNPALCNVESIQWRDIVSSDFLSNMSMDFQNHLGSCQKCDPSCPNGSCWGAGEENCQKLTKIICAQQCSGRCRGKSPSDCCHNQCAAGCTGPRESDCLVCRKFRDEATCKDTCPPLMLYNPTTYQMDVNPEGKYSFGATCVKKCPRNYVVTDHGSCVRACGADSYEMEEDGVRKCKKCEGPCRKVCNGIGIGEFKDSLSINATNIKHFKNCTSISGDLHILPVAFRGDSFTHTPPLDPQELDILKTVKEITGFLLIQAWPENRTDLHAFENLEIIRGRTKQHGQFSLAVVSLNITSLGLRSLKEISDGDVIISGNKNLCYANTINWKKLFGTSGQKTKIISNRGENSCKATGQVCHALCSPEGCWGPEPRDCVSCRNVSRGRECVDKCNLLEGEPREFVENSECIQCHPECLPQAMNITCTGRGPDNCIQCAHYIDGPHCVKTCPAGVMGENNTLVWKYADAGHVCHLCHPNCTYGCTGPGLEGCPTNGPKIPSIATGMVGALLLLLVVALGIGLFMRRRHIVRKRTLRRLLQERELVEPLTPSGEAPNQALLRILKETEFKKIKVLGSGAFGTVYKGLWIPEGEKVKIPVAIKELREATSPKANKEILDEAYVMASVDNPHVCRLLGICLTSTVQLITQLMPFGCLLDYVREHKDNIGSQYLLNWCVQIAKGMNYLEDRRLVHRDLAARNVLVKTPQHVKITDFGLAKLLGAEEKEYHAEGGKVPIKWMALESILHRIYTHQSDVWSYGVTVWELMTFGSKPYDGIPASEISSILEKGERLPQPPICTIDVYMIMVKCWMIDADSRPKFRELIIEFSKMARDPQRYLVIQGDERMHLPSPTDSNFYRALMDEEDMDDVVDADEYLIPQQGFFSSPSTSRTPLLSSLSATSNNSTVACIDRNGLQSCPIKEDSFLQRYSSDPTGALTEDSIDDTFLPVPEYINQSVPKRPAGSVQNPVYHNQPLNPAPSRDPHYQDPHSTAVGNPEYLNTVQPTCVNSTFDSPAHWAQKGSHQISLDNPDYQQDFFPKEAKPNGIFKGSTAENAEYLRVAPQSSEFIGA
How it was run: as §1

IGF1R = IGF1R (Homo sapiens, UniProt P08069); experiment: IGF1R kinase test (mobility variation analysis, Caliper EZ Reader); type: biochemical; details: kinase enzymatic activity, Table 1; read-out: EGFR IGF1R IC50
How it was run: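 Mobility-shift readout of substrate conversion, normalised to positive (no compound) and negative (no kinase) controls, gives % inhibition and IC50 by four-parameter fit. Compounds, 3-fold dilutions over 10 concentrations starting at 3000 nM, preincubated 10 min with kinase before ATP/substrate start; room temperature.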

[1] = target: Ba/F3 cells with EGFR Δ19del/T790M/C797S mutation gene stably overexpressed (Homo sapiens, UniProt P00533, T790M/C797S, cells depend on it, form not given); experiment: Ba/F3-Δ19del/T790M/C797S cell proliferation assay (CellTiter Glo, 72 hours); type: cell-based; details: Table 2, read-out: EGFR Δ19del/T790M/C797S IC50
Sequence of Ba/F3 cells with EGFR Δ19del/T790M/C797S mutation gene stably overexpressed (P00533 with tags, fused parts or gaps DEL746-750/T790M/C797S, form open): as the sequence (P00533 with tags, fused parts or gaps DEL746-750/T790M/C797S, form open) above
How it was run: (§2)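 Ba/F3 cells stably overexpressing wild-type EGFR or EGFR Δ19del/T790M/C797S were seeded at 2000 cells/well and incubated 72 h with compound. Viability was read by CellTiter-Glo luminescence, and IC50 came from a four-parameter logistic fit of signal against log concentration.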

[2] = target: Ba/F3-EGFR wild-type cell line (Homo sapiens, UniProt P00533); experiment: Ba/F3-EGFR wild-type cell proliferation assay (CellTiter Glo, 72 hours); type: cell-based; details: Table 2, read-out: EGFR WT IC50
Sequence of Ba/F3-EGFR wild-type cell line (P00533 whole entry, change not shown): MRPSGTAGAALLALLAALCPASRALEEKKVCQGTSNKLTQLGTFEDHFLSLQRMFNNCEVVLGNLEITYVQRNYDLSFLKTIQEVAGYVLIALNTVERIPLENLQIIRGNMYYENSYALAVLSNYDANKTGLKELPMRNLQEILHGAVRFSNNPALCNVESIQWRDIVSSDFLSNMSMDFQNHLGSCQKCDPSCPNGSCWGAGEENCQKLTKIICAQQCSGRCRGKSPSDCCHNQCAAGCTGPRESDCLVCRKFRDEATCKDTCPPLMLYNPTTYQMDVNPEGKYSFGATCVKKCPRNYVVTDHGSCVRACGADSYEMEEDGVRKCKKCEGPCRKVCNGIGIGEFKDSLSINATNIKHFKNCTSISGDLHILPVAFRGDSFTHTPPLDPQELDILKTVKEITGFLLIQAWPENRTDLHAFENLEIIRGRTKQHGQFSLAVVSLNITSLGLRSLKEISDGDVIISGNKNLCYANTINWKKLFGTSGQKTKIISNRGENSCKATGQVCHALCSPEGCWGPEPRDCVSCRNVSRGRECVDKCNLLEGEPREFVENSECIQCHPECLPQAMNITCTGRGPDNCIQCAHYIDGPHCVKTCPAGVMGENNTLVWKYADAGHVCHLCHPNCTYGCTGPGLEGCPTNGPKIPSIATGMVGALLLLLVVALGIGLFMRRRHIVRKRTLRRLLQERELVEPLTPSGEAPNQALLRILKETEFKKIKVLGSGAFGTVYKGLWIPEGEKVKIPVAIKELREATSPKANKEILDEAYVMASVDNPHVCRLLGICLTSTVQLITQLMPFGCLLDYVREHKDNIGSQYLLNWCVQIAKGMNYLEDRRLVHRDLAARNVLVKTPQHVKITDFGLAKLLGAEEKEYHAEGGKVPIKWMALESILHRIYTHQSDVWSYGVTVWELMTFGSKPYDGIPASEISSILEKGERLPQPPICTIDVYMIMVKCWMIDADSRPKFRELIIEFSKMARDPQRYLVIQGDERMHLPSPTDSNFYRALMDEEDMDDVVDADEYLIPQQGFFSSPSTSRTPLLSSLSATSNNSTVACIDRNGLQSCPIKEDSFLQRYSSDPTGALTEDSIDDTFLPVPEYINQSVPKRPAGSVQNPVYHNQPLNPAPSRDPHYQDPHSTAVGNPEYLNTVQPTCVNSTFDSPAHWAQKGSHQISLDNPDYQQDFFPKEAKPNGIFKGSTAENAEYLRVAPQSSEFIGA
How it was run: as §2

A431 = A431 cell proliferation assay (CellTiter Glo, 72 hours); type: cell-based; details: cell proliferation, A431, 72 hours, Table 2, read-out: A431 IC50
How it was run: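 Luminescence (CellTiter-Glo) after 72 h treatment gives viability, fitted by nonlinear regression to yield IC50. Cells seeded at 2000 per well; nine 3-fold concentrations from 1000 nM, DMSO final 0.1% (0.5% for certain compounds).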

Row | SMILES | IC50 (EGFRΔ19del/T790M/C797S) | IC50 (EGFR WT) | IC50 (IGF1R) | GI50 [1] | GI50 [2] | IC50 (A431; Homo sapiens, A-431, 72 h) | IC50 (A431)
1 | CCc1cc(Nc2ncc(Br)c(Nc3ccc(-c4ccccc4C)cc3P(C)(C)=O)n2)c(OC)cc1N1CCC(N2CCOCC2)CC1 [Compound K-049, (4-((5-Bromo-2-((5-ethyl-2-methoxy-4-(4-morpholinopiperidin-1-yl)phenyl)amino)pyrimidin-4-yl)amino)-2′-methyl-[1,1′-biphenyl]-3-yl)dimethylphosphine oxide] | 0.8 nM | 31.7 nM | 432 nM | 38.4 nM | 373 nM | 1470 nM | –
2 | CCc1cc(Nc2ncc(Br)c(Nc3ccc(-c4ccccc4)c(C)c3P(C)(C)=O)n2)c(OC)cc1N1CCC(N2CCN(C)CC2)CC1 [Compound K-050, (4-((5-Bromo-2-((5-ethyl-2-methoxy-4-(4-(4-methylpiperazin-1-yl)piperidin-1-yl)phenyl)amino)pyrimidin-4-yl)amino)-2-methyl-[1,1′-biphenyl]-3-yl)dimethylphosphine oxide] | 1.1 nM | 12.3 nM | 121 nM | 20.6 nM | 218 nM | 1030 nM | –
3 | CCc1cc(Nc2ncc(Br)c(Nc3ccc(-n4cc(OC)cn4)cc3P(C)(C)=O)n2)c(OC)cc1N1CCC(N2CCN(C)CC2)CC1 [Compound K-054, (2-((5-Bromo-2-((5-ethyl-2-methoxy-4-(4-(4-methylpiperazin-1-yl)piperidin-1-yl)phenyl)amino)pyrimidin-4-yl)amino)-5-(4-methoxy-1H-pyrazol-1-yl)phenyl)dimethylphosphine oxide] | 0.2 nM | 32 nM | 268 nM | 19.1 nM | 343 nM | 1510 nM | –
4 | CCc1cc(Nc2ncc(Br)c(Nc3ccc(-c4cnn(CC)n4)cc3P(C)(C)=O)n2)c(OC)cc1N1CCC(N2CCN(C)CC2)CC1 [Compound K-062, (2-((5-Bromo-2-((5-ethyl-2-methoxy-4-(4-(4-methylpiperazin-1-yl)piperidin-1-yl)phenyl)amino)pyrimidin-4-yl)amino)-5-(2-ethyl-2H-1,2,3-triazol-4-yl)phenyl)dimethylphosphine oxide] | 0.2 nM | 18 nM | 126 nM | 23.9 nM | 459 nM | 1800 nM | –
5 | CCc1cc(Nc2ncc(Br)c(Nc3ccc(-c4cc(C)n(C)n4)cc3P(C)(C)=O)n2)c(OC)cc1N1CCC(N2CCN(C)CC2)CC1 [Compound K-066] | 1.1 nM | 13.9 nM | 134 nM | 10.6 nM | 105 nM | 2300 nM | –
6 | CCc1cc(Nc2ncc(Br)c(Nc3ccc(-n4cc(C)cn4)cc3P(C)(C)=O)n2)c(OC)cc1N1CCC(N2CCN(C)CC2)CC1 [Compound K-069, (2-((5-Bromo-2-((5-ethyl-2-methoxy-4-(4-(4-methylpiperazin-1-yl)piperidin-1-yl)phenyl)amino)pyrimidin-4-yl)amino)-5-(4-methyl-1H-pyrazol-1-yl)phenyl)dimethylphosphine oxide] | 0.67 nM | 26.7 nM | 219 nM | 37.4 nM | 355 nM | – | 1610 nM
7 | CCc1cc(Nc2ncc(Br)c(Nc3ccc(-c4ccc(C)cn4)cc3P(C)(C)=O)n2)c(OC)cc1N1CCC(N2CCN(C)CC2)CC1 [Compound K-071, (2-((5-Bromo-2-((5-ethyl-2-methoxy-4-(4-(4-methylpiperazin-1-yl)piperidin-1-yl)phenyl)amino)pyrimidin-4-yl)amino)-5-(5-methylpyridin-2-yl)phenyl)dimethylphosphine oxide] | 0.3 nM | 29.4 nM | 180 nM | 21 nM | 218 nM | – | 2540 nM
8 | CCc1cc(Nc2ncc(Br)c(Nc3ccc(-c4ccc(OC)s4)cc3P(C)(C)=O)n2)c(OC)cc1N1CCC(N2CCN(C)CC2)CC1 [Compound K-072, (2-((5-Bromo-2-((5-ethyl-2-methoxy-4-(4-(4-methylpiperazin-1-yl)piperidin-1-yl)phenyl)amino)pyrimidin-4-yl)amino)-5-(5-methoxythiophen-2-yl)phenyl)dimethylphosphine oxide] | 0.96 nM | 12 nM | 150 nM | 50.3 nM | 446 nM | 1930 nM | –
9 | CCc1cc(Nc2ncc(Br)c(Nc3ccc(-c4nc(Cl)cs4)cc3P(C)(C)=O)n2)c(OC)cc1N1CCC(N2CCN(C)CC2)CC1 [Compound K-073, (2-((5-Bromo-2-((5-ethyl-2-methoxy-4-(4-(4-methylpiperazin-1-yl)piperidin-1-yl)phenyl)amino)pyrimidin-4-yl)amino)-5-(4-chlorothiazol-2-yl)phenyl)dimethylphosphine oxide] | 0.3 nM | 22.2 nM | 127 nM | 27.7 nM | 407 nM | 1510 nM | –
10 | CCc1cc(Nc2ncc(Br)c(Nc3ccc(-c4ccc(OC)cn4)cc3P(C)(C)=O)n2)c(OC)cc1N1CCC(N2CCN(C)CC2)CC1 [Compound K-074, (2-((5-Bromo-2-((5-ethyl-2-methoxy-4-(4-(4-methylpiperazin-1-yl)piperidin-1-yl)phenyl)amino)pyrimidin-4-yl)amino)-5-(5-methoxypyridin-2-yl)phenyl)dimethylphosphine oxide] | 0.4 nM | 35.8 nM | 253 nM | 4.2 nM | 267 nM | 2760 nM | –
11 | CCc1cc(Nc2ncc(Br)c(Nc3ccc(-c4nn(C)c5ncccc45)cc3P(C)(C)=O)n2)c(OC)cc1N1CCC(N(C)C)CC1 [Compound K-079, (2-((5-Bromo-2-((4-(4-(dimethylamino)piperidin-1-yl)-5-ethyl-2-methoxyphenyl)amino)pyrimidine-4-yl)amino)-5-(1-methyl-1H-pyrazolo[3,4-b]pyridin-3-yl)phenyl)dimethylphosphine oxide] | 0.5 nM | 149 nM | 997 nM | 50.9 nM | 432 nM | 7650 nM | –
12 | COc1cnn(-c2ccc(Nc3nc(Nc4cc(C)c(N5CCC(N6CCCCC6)CC5)cc4OC)ncc3Br)c(P(C)(C)=O)c2)c1 [Compound K-087] | 0.1 nM | 17.2 nM | 96.1 nM | 7.4 nM | 245 nM | 4820 nM | –
13 | COc1cnn(-c2ccc(Nc3nc(Nc4cc(C)c(N5CCN(C6CCN(C)CC6)CC5)cc4OC)ncc3Br)c(P(C)(C)=O)c2)c1 [Compound K-088] | 0.3 nM | 31 nM | 170 nM | 14.6 nM | 285 nM | > 10000 nM | –
14 | COc1cnn(-c2ccc(Nc3nc(Nc4cc(C)c(N5CCN(C6CCCC6)CC5)cc4OC)ncc3Br)c(P(C)(C)=O)c2)c1 [Compound K-089, (2-((5-Bromo-2-((4-(4-cyclopentylpiperazin-1-yl)-2-methoxy-5-methylphenyl)amino)pyrimidin-4-yl)amino)-5-(4-methoxy-1H-pyrazol-1-yl)phenyl)dimethylphosphine oxide] | 0.3 nM | 169 nM | 259 nM | 9.5 nM | 400 nM | > 10000 nM | –
15 | CCc1cc(Nc2ncc(Br)c(Nc3ccc(-n4cc(COC)cn4)cc3P(C)(C)=O)n2)c(OC)cc1N1CCC(N2CCN(C)CC2)CC1 [Compound K-090] | 0.3 nM | 28.2 nM | 202 nM | 18.4 nM | 467 nM | 2320 nM | –
16 | CCc1cc(Nc2ncc(Cl)c(Nc3ccc(-c4cnn5c4CCCC5)cc3P(C)(C)=O)n2)c(OC)cc1N1CCC(N2CCN(C)CC2)CC1 [Compound K-104, (2-((5-Chloro-2-((5-ethyl-2-methoxy-4-(4-(4-methylpiperazin-1-yl)piperidin-1-yl)phenyl)amino)pyrimidin-4-yl)amino)-5-(4,5,6,7-tetrahydropyrazolo[1,5-a]pyridin-3-yl)phenyl)dimethylphosphine oxide] | 0.4 nM | 23.1 nM | 378 nM | 64.2 nM | 204 nM | 3250 nM | –
